Values quoted from earlier work, collected in patent publication US8734826B2 (priority 2005, dated 2014).
Like-named read-outs stand apart in the source and are kept apart here.

Experiments:
[1] = test system: anal sphincter; conditions: in vivo
[2] = test system: pre-synaptic cholinergic nerve terminals; conditions: in vivo
[3] = test system: anal fissure; conditions: in vivo
[4] = in vivo
[5] = test system: internal anal sphincter smooth muscle

Molecule: N=C(N)NCCC[C@H](N)C(=O)O [L-arginine]
- resting anal pressure [1]: causes a reduction in resting anal pressure

Molecule: Botulinum toxin
- duration of clinical weakening of the muscle [2]: 3 to 4 months
- fissure healing [3]: healing of the fissure
- pain and fissure healing [3]: reduced pain and promoted fissure healing
- voluntary squeeze pressure [1]: reduction in voluntary squeeze pressure
- peri-anal thrombosis [4]: peri-anal thrombosis has been reported in some patients

Molecule: CC(C[N+](C)(C)C)OC(N)=O (centres unmarked) [bethanecol]
- healing of anal fissures [3]: increased healing of anal fissures
- resting anal pressure [1]: reducing resting anal pressure

Molecule: COc1ccc([C@@H]2Sc3ccccc3N(CCN(C)C)C(=O)[C@@H]2OC(C)=O)cc1 [diltiazem]
- fissure healing [3]: results in fissure healing
- resting anal pressure [1]: reduce resting anal pressure
- resting anal pressure ([1]; po): caused a reduction in resting anal pressure

Molecule: O=[N+]([O-])OCC(CO[N+](=O)[O-])O[N+](=O)[O-] [nitroglycerin]
- pain reduction and fissure healing [3]: pain reduction and increased fissure healing
- relaxation of internal anal sphincter smooth muscle [5]: cause a relaxation of internal anal sphincter smooth muscle

Molecule: O=[N+]([O-])O[C@H]1CO[C@H]2[C@@H]1OC[C@H]2O[N+](=O)[O-] [isorbide dinitrate]
- pain reduction and fissure healing [3]: pain reduction and increased fissure healing
- relaxation of internal anal sphincter smooth muscle [5]: cause a relaxation of internal anal sphincter smooth muscle

Molecule: O=C(NC1CCN(CCc2c[nH]c3ccccc23)CC1)c1ccccc1 [indoramin]
- resting anal pressure ([1]; po): reduce resting anal pressure

Molecule: CC(C)(C)NCC(O)c1ccc(O)c(CO)c1 (centres unmarked) [salbutamol]
- resting anal pressure [1]: reduce resting anal pressure
